Test results from the supplement of paper PMC10627819.
Values after ≈ are worked out from the molar mass of the structure shown.

Key:
S. aureus DSM 20231 [1] = assay: fitness (endpoint OD595 vs no drug) (fraction); higher = more growth
Outline: (§1)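 Fitness was defined as the optical density at the transition into stationary phase relative to the robust mean of no-drug control wells. Values were capped at 1. Cultures were started at OD595 0.01 in 384-well plates (30 µl, or 55 µl for S. pneumoniae) in TSB, LB Lennox or CY at 37 °C. OD595 was recorded every 30 min over 14 h, with the first reading subtracted as background.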

B. subtilis 168 [2] = assay: as above
Outline: as §1

S. pneumoniae D39V [3] = assay: as above
Outline: as §1

S. aureus Newman [4] = assay: as above
Outline: as §1

S. aureus DSM 20231 [5] = assay: Bliss interaction score (quartile over a dose matrix) (fitness difference); higher = more antagonism (negative = synergy)
Outline: (§2)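 Growth in each well was taken as OD595 at entry into stationary phase. Dividing by the plate's robust no-drug mean and capping at 1 gave fitness, and single-drug fitness was inferred from the combination data. The Bliss score, observed minus product-expected fitness, is summarised by quartiles over technical, biological and donor/recipient replicates.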

B. subtilis 168 [6] = assay: as above
Outline: as §2

S. pneumoniae D39V [7] = assay: as above
Outline: as §2

S. aureus Newman [8] = assay: as above
Outline: as §2

S. aureus DSM 20231 [9] = system: S. aureus DSM 20231
B. subtilis 168 [10] = system: B. subtilis 168
S. pneumoniae D39V [11] = system: S. pneumoniae D39V
S. aureus Newman [12] = system: S. aureus Newman
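Throughout, for Bliss interaction score (quartile over a dose matrix): first quartile when negative (synergy) and third quartile when positive (antagonism).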

COc1ccc(C[C@H](N)C(=O)N[C@H]2[C@@H](O)[C@H](n3cnc4c(N(C)C)ncnc43)O[C@@H]2CO)cc1 [Puromycin] + Cc1cc(NS(=O)(=O)c2ccc(N)cc2)no1 [Sulfamethoxazol]
fitness
Settings | partner 1 µg/mL | partner 2 µg/mL | partner 4 µg/mL
B. subtilis 168 [2], first compound 0.39 µg/mL | 0.934 | 0.947 | 0.891
B. subtilis 168 [2], first compound 0.78 µg/mL | 0.921 | 0.863 | 0.949
B. subtilis 168 [2], first compound 1.56 µg/mL | 0.968 | 0.888 | 0.941
S. aureus DSM 20231 [1], first compound 0.39 µg/mL | 0.998 | 0.996 | ≥ 1
S. aureus DSM 20231 [1], first compound 0.78 µg/mL | 0.988 | ≥ 1 | 0.995
S. aureus DSM 20231 [1], first compound 1.56 µg/mL | 0.952 | 0.992 | 0.961
S. aureus Newman [4], first compound 0.78 µg/mL | 0.996 | 0.943 | 0.958
S. aureus Newman [4], first compound 1.56 µg/mL | 0.966 | 0.968 | ≥ 1
S. pneumoniae D39V [3], first compound 1 µg/mL | 0.945 | 0.934 | 0.961
S. pneumoniae D39V [3], first compound 2 µg/mL | 0.948 | 0.927 | 0.932
S. pneumoniae D39V [3], first compound 4 µg/mL | 0.799 | 0.807 | 0.947

one replicate
Settings | fitness
B. subtilis 168 [2], first compound 0.39 µg/mL, partner 0.5 µg/mL | ≥ 1
B. subtilis 168 [2], first compound 0.78 µg/mL, partner 0.5 µg/mL | 0.996
B. subtilis 168 [2], first compound 1.56 µg/mL, partner 0.5 µg/mL | 0.992
S. aureus DSM 20231 [1], first compound 3.12 µg/mL, partner 1 µg/mL | 0.884
S. aureus DSM 20231 [1], first compound 3.12 µg/mL, partner 2 µg/mL | 0.864
S. aureus DSM 20231 [1], first compound 3.12 µg/mL, partner 4 µg/mL | 0.969
S. aureus DSM 20231 [1], first compound 6.24 µg/mL, partner 1 µg/mL | 0.722
S. aureus DSM 20231 [1], first compound 6.24 µg/mL, partner 2 µg/mL | 0.706
S. aureus DSM 20231 [1], first compound 6.24 µg/mL, partner 4 µg/mL | 0.736
S. aureus Newman [4], first compound 0.39 µg/mL, partner 8 µg/mL | 0.916
S. aureus Newman [4], first compound 0.78 µg/mL, partner 8 µg/mL | 0.931
S. aureus Newman [4], first compound 1.56 µg/mL, partner 8 µg/mL | 0.983

Settings | Bliss interaction score
B. subtilis 168 [6] | 0.0514
S. aureus DSM 20231 [5] | 0.0554
S. aureus Newman [8] | 0.0386
S. pneumoniae D39V [7] | 0.113

CN(C)c1cc(NC(=O)CNC(C)(C)C)c(O)c2c1C[C@H]1C[C@H]3[C@H](N(C)C)C(O)=C(C(N)=O)C(=O)[C@@]3(O)C(O)=C1C2=O [Tigecycline]
Settings | MIC [µg/mL]
B. subtilis 168 [10] | 0.312 (≈ 0.533 µM)
S. aureus DSM 20231 [9] | 0.18 (≈ 0.307 µM)
S. aureus Newman [12] | 0.18 (≈ 0.307 µM)
S. pneumoniae D39V [11] | 3 (≈ 5.12 µM)

Settings | fitness
B. subtilis 168 [2], 0.039 µg/mL | 0.953
B. subtilis 168 [2], 0.078 µg/mL | 0.95
B. subtilis 168 [2], 0.156 µg/mL | 0.933
S. aureus Newman [4], 0.039 µg/mL | 0.975
S. aureus Newman [4], 0.078 µg/mL | 0.959
S. aureus Newman [4], 0.156 µg/mL | 0.973
S. pneumoniae D39V [3], 0.325 µg/mL | 0.971
S. pneumoniae D39V [3], 0.65 µg/mL | 0.959
S. pneumoniae D39V [3], 1.3 µg/mL | 0.966
S. pneumoniae D39V [3], 2.6 µg/mL | 0.965
